In patent US20200308550A1, “TUMOR ORGANOID MODEL” (IMBA - INSTITUT FÜR MOLEKULARE BIOTECHNOLOGIE GMBH, priority 2017, published 2020):

Each compound was assayed on GBM-1 neoplastic organoids including firefly luciferase (assay: Luciferase assay-based drug testing on neoplastic organoids). Conditions: 1 μM, forty days after drug treatment, vs DMSO.
Assay type: cell-based, human
Method: FIG. 13. […] Normalized luciferase activity was presented. Statistical analysis of quantifications was performed using one-way ANOVA with Dunnett's test. **, p<0.01.
For drug testing, neoplastic organoids were first grown for 2 months, followed by drug treatment for 40 days. […] After drug treatment, neoplastic organoids were trypsinized for single cell preparation, followed by FACS sorting analysis. Total cell numbers were counted to evaluate the cytotoxicity of the drugs.
In an effort toward adapting this method for large scale screening, we modified the neoplastic cerebral organoid system to include firefly luciferase for measurement of tumor size (FIG. 13a).

Row | relative firefly luciferase activity (tumor size) | SMILES
1 | only non-significant effects | C=CC(=O)Nc1cc2c(Nc3ccc(F)c(Cl)c3)ncnc2cc1OCCCN1CCOCC1 [Canertibib, Canertinib]
2 | only non-significant effects | COc1cc2ncnc(Nc3ccc(F)c(Cl)c3)c2cc1OCCCN1CCOCC1 [Gefitinib]
3 | only non-significant effects | CCOc1cc2ncc(C#N)c(Nc3ccc(F)c(Cl)c3)c2cc1NC(=O)/C=C/CN(C)C [Pelitinib]

Row | SMILES | relative firefly luciferase activity (tumor size)
4 | C#Cc1cccc(Nc2ncnc3cc(OCCOC)c(OCCOC)cc23)c1 [Erlotinib] | significantly reduced firefly luciferase activity
